Test results as given in PubChem BioAssay (NCI).
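Results reflect a 48-hour exposure of cells in 96-well plates to compound at five concentrations. GI50 marks 50% less growth. TGI denotes the concentration required for complete inhibition of growth.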

What was measured:
Experiment in all cases: inhibition of tumour cell growth, NCI panel, 48 h; in the data active means GI50 below about 0.43 µM; inactive means the rest
786-0 renal = tested on: 786-0 renal
A498 renal = tested on: A498 renal
A549 NSCLC = tested on: A549 NSCLC
ACHN renal = tested on: ACHN renal
BT-549 breast = tested on: BT-549 breast
CAKI-1 renal = tested on: CAKI-1 renal
CCRF-CEM leukemia = tested on: CCRF-CEM leukemia
COLO 205 colon = tested on: COLO 205 colon
DU-145 prostate = tested on: DU-145 prostate
EKVX NSCLC = tested on: EKVX NSCLC
HCC-2998 colon = tested on: HCC-2998 colon
HCT-116 colon = tested on: HCT-116 colon
HCT-15 colon = tested on: HCT-15 colon
HL-60(TB) leukemia = tested on: HL-60(TB) leukemia
HOP-62 NSCLC = tested on: HOP-62 NSCLC
HOP-92 NSCLC = tested on: HOP-92 NSCLC
HS 578T breast = tested on: HS 578T breast
HT29 colon = tested on: HT29 colon
IGROV1 ovarian = tested on: IGROV1 ovarian
K-562 leukemia = tested on: K-562 leukemia
KM12 colon = tested on: KM12 colon
LOX IMVI melanoma = tested on: LOX IMVI melanoma
M14 melanoma = tested on: M14 melanoma
MALME-3M melanoma = tested on: MALME-3M melanoma
MCF7 breast = tested on: MCF7 breast
MDA-MB-231 breast = tested on: MDA-MB-231 breast
MDA-MB-435 = tested on: MDA-MB-435
MOLT-4 leukemia = tested on: MOLT-4 leukemia

COc1ccc(-c2cc(-c3ccc(Cl)cc3)c(C#N)c(=O)n2CCCCCC(=O)Nc2ccccc2N)cc1
33.2 µM: TGI (COLO 205 colon)
3.45 µM: TGI (LOX IMVI melanoma)
19.2 µM: TGI (A498 renal)
18.7 µM: TGI (MDA-MB-435)
7.12 µM: TGI (HL-60(TB) leukemia)
52.1 µM: TGI (HOP-62 NSCLC)
9.93 µM: TGI (HOP-92 NSCLC)
inactive: GI50 (786-0 renal) 4.49 µM | GI50 (A498 renal) 1.37 µM | GI50 (A549 NSCLC) 4.06 µM | GI50 (ACHN renal) 4.18 µM | GI50 (BT-549 breast) 4.49 µM | GI50 (CAKI-1 renal) 2.04 µM | GI50 (CCRF-CEM leukemia) 4.84 µM | GI50 (COLO 205 colon) 3.15 µM | GI50 (DU-145 prostate) 10.6 µM | GI50 (EKVX NSCLC) 3.44 µM | GI50 (HCC-2998 colon) 4.02 µM | GI50 (HCT-116 colon) 3.8 µM | GI50 (HCT-15 colon) 2.78 µM | GI50 (HL-60(TB) leukemia) 2.6 µM | GI50 (HOP-62 NSCLC) 3.49 µM | GI50 (HOP-92 NSCLC) 1.96 µM | GI50 (HS 578T breast) 3.06 µM | GI50 (HT29 colon) 3.56 µM | GI50 (IGROV1 ovarian) 4.22 µM | GI50 (K-562 leukemia) 3.37 µM | GI50 (KM12 colon) 4.58 µM | GI50 (LOX IMVI melanoma) 1.64 µM | GI50 (M14 melanoma) 2.44 µM | GI50 (MALME-3M melanoma) 3.19 µM | GI50 (MCF7 breast) 3.25 µM | GI50 (MDA-MB-231 breast) 7.12 µM | GI50 (MDA-MB-435) 3.69 µM | GI50 (MOLT-4 leukemia) 5.16 µM
36.5 µM: TGI (HCC-2998 colon)
6.57 µM: TGI (M14 melanoma)
20.3 µM: TGI (MALME-3M melanoma)
43.7 µM: TGI (BT-549 breast)
27 µM: TGI (KM12 colon)
> 100 µM: TGI (786-0 renal) | TGI (A549 NSCLC) | TGI (ACHN renal) | TGI (CCRF-CEM leukemia) | TGI (DU-145 prostate) | TGI (HCT-116 colon) | TGI (HT29 colon) | TGI (IGROV1 ovarian) | TGI (K-562 leukemia) | TGI (MCF7 breast) | TGI (MDA-MB-231 breast) | TGI (MOLT-4 leukemia)
29.7 µM: TGI (HS 578T breast)
61.1 µM: TGI (EKVX NSCLC)
5.97 µM: TGI (CAKI-1 renal)
10.4 µM: TGI (HCT-15 colon)
